Reference: ChEMBL document CHEMBL3352506, “Betulin derivatives impair Leishmania braziliensis viability and host-parasite interaction” (Bioorg Med Chem, 2014)
Activity calls are given as the source filed them. No cut-off for these calls is given here.

Tests used:
[1] = tested on: Leishmania braziliensis; experiment: Antiparasitic activity against Leishmania braziliensis assessed as inhibition of growth after 72 hrs at 10 uM; type: functional
[2] = tested on: J774.A1; experiment: Cytotoxicity against mouse J774.A1 cells; type: cell-based
[3] = tested on: Leishmania braziliensis; experiment: Leishmanicidal activity against Leishmania braziliensis assessed as reduction in parasite migration at 10^-6 M after 30 mins by chemotactic assay; type: functional, organism-based
[4] = Selectivity index, ratio of IC50 for mouse J774.A1 cells to IC50 for Leishmania braziliensis; type: toxicity, cell-based; conditions: J774.A1 cells versus Leishmania braziliensis, read-out: Ratio IC50
[5] = tested on: Leishmania braziliensis; experiment: Leishmanicidal activity against Leishmania braziliensis assessed as dead cells at 10^-6 M after 30 mins by chemotactic assay; type: functional; conditions: 0.5 h
[6] = tested on: Leishmania braziliensis; experiment: Antiparasitic activity against Leishmania braziliensis assessed as inhibition of growth after 72 hrs; type: functional, organism-based
[7] = tested on: Leishmania braziliensis; experiment: Antiparasitic activity against Leishmania braziliensis assessed as inhibition of infection with mouse J774.A1 cells measured infected cells at 1 uM after 4 hrs; type: functional; design: scale not given: the % may be the effect or the level left
[8] = tested on: Leishmania braziliensis; experiment: Antiparasitic activity against Leishmania braziliensis assessed as inhibition of infection with mouse J774.A1 cells measured attached parasites at 1 uM after 4 hrs; type: functional; design: scale not given: the % may be the effect or the level left
[9] = tested on: Leishmania braziliensis; experiment: Antiparasitic activity against Leishmania braziliensis assessed as inhibition of infection with mouse J774.A1 cells measured as >10 parasites per cell at 1 uM after 4 hrs; type: functional; design: scale not given: the % may be the effect or the level left
[10] = tested on: Leishmania braziliensis; experiment: Antiparasitic activity against Leishmania braziliensis assessed as inhibition of infection with mouse J774.A1 cells measured as <5 parasites per cell at 1 uM after 4 hrs; type: functional; design: scale not given: the % may be the effect or the level left
[11] = tested on: Leishmania braziliensis; experiment: Antiparasitic activity against Leishmania braziliensis assessed as inhibition of infection with mouse J774.A1 cells measured as 5 to 10 parasites per cell at 1 uM after 4 hrs; type: functional; design: scale not given: the % may be the effect or the level left
[12] = tested on: Leishmania braziliensis; experiment: Antiparasitic activity against Leishmania braziliensis assessed as inhibition of infection with mouse J774.A1 cells measured attached parasites at 1 x 10^-7 M after 4 hrs; type: functional; design: scale not given: the % may be the effect or the level left
[13] = tested on: Leishmania braziliensis; experiment: Antiparasitic activity against Leishmania braziliensis assessed as inhibition of infection with mouse J774.A1 cells measured as 5 to 10 parasites per cell at 1 x 10^-7 M after 4 hrs; type: functional; design: scale not given: the % may be the effect or the level left
[14] = tested on: Leishmania braziliensis; experiment: Antiparasitic activity against Leishmania braziliensis assessed as inhibition of infection with mouse J774.A1 cells measured as >10 parasites per cell at 1 x 10^-7 M after 4 hrs; type: functional; design: scale not given: the % may be the effect or the level left
[15] = tested on: Leishmania braziliensis; experiment: Antiparasitic activity against Leishmania braziliensis assessed as inhibition of infection with mouse J774.A1 cells measured as 5 to 10 parasites per cell at 1 x 10^-9 M after 4 hrs; type: functional; design: scale not given: the % may be the effect or the level left
[16] = tested on: Leishmania braziliensis; experiment: Antiparasitic activity against Leishmania braziliensis assessed as inhibition of infection with mouse J774.A1 cells measured attached parasites at 1 x 10^-9 M after 4 hrs; type: functional; design: scale not given: the % may be the effect or the level left
[17] = tested on: Leishmania braziliensis; experiment: Antiparasitic activity against Leishmania braziliensis assessed as inhibition of infection with mouse J774.A1 cells measured attached parasites at 1 x 10^-8 M after 4 hrs; type: functional; design: scale not given: the % may be the effect or the level left
[18] = tested on: Leishmania braziliensis; experiment: Antiparasitic activity against Leishmania braziliensis assessed as inhibition of infection with mouse J774.A1 cells measured infected cells […] at 1 x 10^-8 M after 4 hrs; type: functional; design: scale not given: the % may be the effect or the level left
[19] = tested on: Leishmania braziliensis; experiment: Antiparasitic activity against Leishmania braziliensis assessed as inhibition of infection with mouse J774.A1 cells measured as >10 parasites per cell at 1 x 10^-8 M after 4 hrs; type: functional; design: scale not given: the % may be the effect or the level left
[20] = tested on: Leishmania braziliensis; experiment: Antiparasitic activity against Leishmania braziliensis assessed as inhibition of infection with mouse J774.A1 cells measured as >10 parasites per cell at 1 x 10^-9 M after 4 hrs; type: functional; design: scale not given: the % may be the effect or the level left
[21] = tested on: Leishmania braziliensis; experiment: Antiparasitic activity against Leishmania braziliensis assessed as inhibition of infection with mouse J774.A1 cells measured as 5 to 10 parasites per cell at 1 x 10^-8 M after 4 hrs; type: functional; design: scale not given: the % may be the effect or the level left
[22] = tested on: Leishmania braziliensis; experiment: Antiparasitic activity against Leishmania braziliensis assessed as inhibition of infection with mouse J774.A1 cells measured infected cells […] at 1 x 10^-7 M after 4 hrs; type: functional; design: scale not given: the % may be the effect or the level left
[23] = tested on: Leishmania braziliensis; experiment: Antiparasitic activity against Leishmania braziliensis assessed as inhibition of infection with mouse J774.A1 cells measured as <5 parasites per cell at 1 x 10^-9 M after 4 hrs; type: functional; design: scale not given: the % may be the effect or the level left
[24] = tested on: Leishmania braziliensis; experiment: Antiparasitic activity against Leishmania braziliensis assessed as inhibition of infection with mouse J774.A1 cells measured infected cells […] at 1 x 10^-9 M after 4 hrs; type: functional; design: scale not given: the % may be the effect or the level left
[25] = tested on: Leishmania braziliensis; experiment: Antiparasitic activity against Leishmania braziliensis assessed as inhibition of infection with mouse J774.A1 cells measured as <5 parasites per cell at 1 x 10^-7 M after 4 hrs; type: functional; design: scale not given: the % may be the effect or the level left
[26] = tested on: Leishmania braziliensis; experiment: Antiparasitic activity against Leishmania braziliensis assessed as inhibition of infection with mouse J774.A1 cells measured as <5 parasites per cell at 1 x 10^-8 M after 4 hrs; type: functional; design: scale not given: the % may be the effect or the level left
[27] = tested on: Leishmania braziliensis; experiment: Leishmanicidal activity against Leishmania braziliensis assessed as dead cells at 10^-12 to 10^-7 M after 30 mins by chemotactic assay; type: functional, organism-based

## C=C(C)[C@@H]1CC[C@]2(C(=O)O)CC[C@]3(C)[C@H](CC[C@@H]4[C@@]5(C)CCC(=O)C(C)(C)[C@@H]5CC[C@]43C)[C@@H]12 [BETUNOLIC ACID]
[1]
  inhibition at 10 µM: 50%

## C=C(C)[C@@H]1CC[C@]2(/C=N/O)CC[C@]3(C)[C@H](CC[C@@H]4[C@@]5(C)CC[C@H](O)C(C)(C)[C@@H]5CC[C@]43C)[C@@H]12
[2]
  IC50: > 10 µM
[1]
  inhibition at 10 µM: 50%
[3]
  Activity: Active
[4]
  selectivity ratio: > 2.5
[5]
  inhibition at 1 µM: 66%
[6]
  IC50: 4.12 µM

## CC(=O)OC[C@]12CC[C@]3(C(C)C)C1=C1C(C[C@@H]4[C@@]5(C)CC[C@H](OC(C)=O)C(C)(C)[C@@H]5CC[C@@]4(C)[C@]1(C)CC2)n1c(=O)n(C)c(=O)n13 (some centres undefined)
[1]
  inhibition at 10 µM: 50%

## C[C@@H]1[C@H](O)[C@@H](C)/C=C/C=C/C=C/C=C/C=C/C=C/C=C/[C@H](O[C@@H]2O[C@H](C)[C@@H](O)[C@H](N)[C@@H]2O)C[C@@H]2O[C@](O)(C[C@@H](O)C[C@@H](O)[C@H](O)CC[C@@H](O)C[C@@H](O)CC(=O)O[C@H]1C)C[C@H](O)[C@H]2C(=O)O [AMPHOTERICIN B]
[7]
  Activity: 15.2%
[8]
  Activity: 41.3%
[9]
  Activity: 7.15%
[10]
  Activity: 71.51%
[11]
  Activity: 21.45%

## CC(C)[C@@]12CC[C@]3(C=O)CC[C@]4(C)C(=C31)C(C[C@@H]1[C@@]3(C)CC[C@H](O)C(C)(C)[C@@H]3CC[C@]14C)n1c(=O)n(C)c(=O)n12 (some centres undefined)
[12]
  Activity: 62.3%
[2]
  IC50: > 10 µM
[13]
  Activity: 5.09%
[14]
  Activity: 5.09%
[15]
  Activity: 15.93%
[3]
  Activity: Active
[16]
  Activity: 50%
[4]
  selectivity ratio: > 5
[17]
  Activity: 56.7%
[5]
  inhibition at 1 µM: 25%
[18]
  Activity: 13.7%
[19]
  Activity: 7.29%
[20]
  Activity: 6.83%
[21]
  Activity: 9.73%
[22]
  Activity: 12.7%
[23]
  Activity: 77.41%
[24]
  Activity: 14.4%
[25]
  Activity: 84.09%
[6]
  IC50: 2.06 µM
[26]
  Activity: 90.02%

## CC(C)[C@@]12CC[C@]3(COC=O)CC[C@]4(C)C(=C31)C(C[C@@H]1[C@@]3(C)CC[C@H](OC=O)C(C)(C)[C@@H]3CC[C@]14C)n1c(=O)n(C)c(=O)n12 (some centres undefined)
[12]
  Activity: 59%
[2]
  IC50: > 10 µM
[13]
  Activity: 25.15%
[14]
  Activity: 3.86%
[15]
  Activity: 15.86%
[16]
  Activity: 55%
[4]
  selectivity ratio: > 40
[17]
  Activity: 46.6%
[5]
  inhibition at 1 µM: 25%
[18]
  Activity: 13.4%
[19]
  Activity: 4.78%
[27]
  Activity: Dose-dependent effect
[20]
  Activity: 6.34%
[21]
  Activity: 31.09%
[22]
  Activity: 17.7%
[23]
  Activity: 76.14%
[24]
  Activity: 10.3%
[25]
  Activity: 61.91%
[6]
  IC50: 0.25 µM
[26]
  Activity: 59.79%

## C=C(C)[C@@H]1CC[C@]2(/C=N/O)CC[C@]3(C)[C@H](CC[C@@H]4[C@@]5(C)CC/C(=N\O)C(C)(C)[C@@H]5CC[C@]43C)[C@@H]12 [BETULIN-3,28-DIOXIME]
[2]
  IC50: > 10 µM
[1]
  inhibition at 10 µM: 50%
[4]
  selectivity ratio: > 3
[5]
  inhibition at 1 µM: 25%
[27]
  Activity: Dose-dependent effect
[6]
  IC50: 3.35 µM
